Activity calls are given as the source filed them.
Tests used:
[1] = target: T1, Polyadenylate-binding protein 1 (Homo sapiens, UniProt P11940); assay: MLLE domain peptide-binding blockers, IC50 – biochemical, fluorescence polarization, FITC-PAM2 peptide, dose response (AID 602259); assay type: functional; details: read-out: IC50_Mean
[2] = target: T1, Polyadenylate-binding protein 1; assay: MLLE binding blockers, Cy5 peptide tracer – biochemical, fluorescence polarization, Cy5-PAM2 peptide, secondary, miRNA deadenylation inhibitor project, dose response (AID 602260); assay type: functional; details: read-out: IC50_Mean
[3] = A549 cell cytotoxicity, dose response, cytotoxicity control, plate reader, cherry-pick, antagonist series (AID 743412); assay type: functional, cell-based
[4] = viability loss in HEK293 cells – cell-based, plate reader, cherry-picked samples, cytotoxicity control, dose response (AID 743446); assay type: functional
[5] = blockers of bursicon-stimulated LGR2 cAMP reporter – cell-based, HEK293, CRE-luciferase reporter, cherry pick, set 2, dose response (AID 743343); assay type: functional;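 further: transfected cells were stimulated with diluted bursicon conditioned medium after compound addition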
[6] = toxicity toward HepG2 liver cells – cell-based, plate reader, cherry-pick, antagonist series, cytotoxicity control, dose response (AID 743416); assay type: functional
[7] = blockade of melanocortin 4 receptor signaling – cell-based, plate reader, cherry pick, counter-screen for LGR2 antagonist project, dose response (AID 743444); assay type: functional;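 further: transfected HEK 293 cells stimulated with alpha-MSH peptide; potency of inhibitors of the alpha-MSH evoked signal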
SN12K1 = assay: cells; assay type: functional; details: Homo sapiens
Cytochrome P450 2D6 = Cytochrome P450 2D6 (Homo sapiens, UniProt P10635);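 further: CYP2D6 member of a cytochrome P450 panel assay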
P388/ADR = assay: cells; assay type: functional
[8] = target: Glucose-6-phosphate 1-dehydrogenase (Homo sapiens, UniProt P11413); assay: inhibition of Homo sapiens G6PD, dose series – biochemical, fluorescence, selectivity assay for P. falciparum G6PD inhibitor project, dose response (AID 504792); assay type: functional
cells [9] = assay type: functional, cell-based
cells [10] = assay type: functional, cell-based; remark: listed apart in the source
HEK293 [11] = assay: EBV LMP1 TES2 canonical NF-kB signalling blockers – cell-based, HEK293, luciferase, cherry-pick, dose response (AID 588343); assay type: functional; details: Homo sapiens
[12] = target: T2, Corticotropin-releasing factor receptor 2/Corticotropin-releasing factor-binding protein (Homo sapiens, UniProt P24387+Q13324); assay: Dose Response confirmation of uHTS hits for small molecule antagonists of the CRF-binding protein and CRF-R2 receptor complex.; assay type: functional; details: read-out: IC50_Mean
T2 sequence (Q13324 whole entry): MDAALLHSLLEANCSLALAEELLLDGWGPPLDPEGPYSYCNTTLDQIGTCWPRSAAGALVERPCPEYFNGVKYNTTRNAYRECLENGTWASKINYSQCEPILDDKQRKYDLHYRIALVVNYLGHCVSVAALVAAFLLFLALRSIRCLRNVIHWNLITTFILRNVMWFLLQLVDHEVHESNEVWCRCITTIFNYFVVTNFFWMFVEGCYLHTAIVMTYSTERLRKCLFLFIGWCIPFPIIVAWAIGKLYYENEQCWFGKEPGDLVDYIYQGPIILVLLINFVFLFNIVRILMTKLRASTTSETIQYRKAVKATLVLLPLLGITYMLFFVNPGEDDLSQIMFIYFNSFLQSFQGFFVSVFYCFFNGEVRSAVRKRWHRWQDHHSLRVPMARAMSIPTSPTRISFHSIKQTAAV
T2 sequence (P24387 whole entry): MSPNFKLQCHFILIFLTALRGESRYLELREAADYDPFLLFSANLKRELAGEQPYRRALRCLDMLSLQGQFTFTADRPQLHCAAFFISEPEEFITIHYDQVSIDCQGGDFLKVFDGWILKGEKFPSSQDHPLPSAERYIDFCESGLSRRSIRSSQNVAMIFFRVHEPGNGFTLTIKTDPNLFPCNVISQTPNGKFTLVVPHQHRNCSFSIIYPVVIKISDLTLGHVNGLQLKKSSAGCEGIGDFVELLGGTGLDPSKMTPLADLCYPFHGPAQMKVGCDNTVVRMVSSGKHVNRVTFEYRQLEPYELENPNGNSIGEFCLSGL

[13] = target: T2, Corticotropin-releasing factor receptor 2/Corticotropin-releasing factor-binding protein; assay: activators of CRF receptor 2 with binding protein – uHTS hits, confirmation (AID 602473); assay type: functional; details: read-out: EC50_Mean
[14] = HIV-1 AD8 envelope cell-cell fusion blockers – cherry-pick, dose response (AID 652062); assay type: functional, cell-based;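 further: luciferase signal from cell-cell fusion driven by HIV-1 clade B AD8 Env; potency is for inhibitors of fusion seen as a drop in luminescence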
[15] = blockers of HIV-1 envelope-mediated cell-cell fusion – cherry-pick, dose response (AID 652057); assay type: functional, cell-based
[16] = target: Induced myeloid leukemia cell differentiation protein Mcl-1 (Homo sapiens, UniProt Q07820); assay type: functional
[17] = OVCAR8 cell viability loss – plate reader, dry powder samples, PAX8 project, dose response (AID 743197); assay type: functional, cell-based; details: OVCAR-8
Paired box protein Pax-8 = Paired box protein Pax-8 (Homo sapiens, UniProt Q06710); assay: PAX8 transcriptional activity inhibition in RMG-I – RMG-I cells, luciferase, cherry-pick, dose response (AID 687027); assay type: functional, cell-based;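 further: luciferase reporter driven by Pax8 target thyroperoxidase promoter measured by SteadyGlo luminescence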
HEK293 [18] = assay: cells; assay type: functional, cell-based; details: Homo sapiens
HEK293 [19] = assay: cells; assay type: functional, cell-based; details: Homo sapiens; remark: listed apart in the source
Nonstructural protein 1 = Nonstructural protein 1 (Influenza A virus, UniProt Q194T2); assay type: functional, Influenza A virus (A/California/07/2009(H1N1))
HEK293 [20] = assay: NOD2 signaling inhibitors in MDP-stimulated cells, cell-based, uHTS, luminescence (AID 2001); assay type: functional; details: Homo sapiens
HEK293 [21] = assay: inhibition of NOD1-driven NF-kB reporter – cell-based, luminescence, uHTS, primary screen (AID 1578); assay type: functional; details: Homo sapiens
[22] = target: Eukaryotic translation initiation factor 4E (Mus musculus, UniProt P63073); assay: blockers of eIF4G binding by eIF4E – biochemical, TR-FRET, dose response (AID 855); assay type: functional;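 further: potency for disrupting eIF4E binding to eIF4GI seen as loss of FRET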
Vero = assay: cells; assay type: functional; details: Chlorocebus sabaeus
[23] = target: Voltage-dependent T-type calcium channel subunit alpha-1H (Homo sapiens, UniProt O95180); assay type: functional;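 further: channel activity triggered by adding a high calcium stimulation buffer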
[24] = blockers of HIV-1 ZM109 envelope-driven cell-cell fusion – HeLa effector, CEM target cells, luciferase, cherry-pick, dose response (AID 652058); assay type: functional, cell-based;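 further: luciferase signal from HIV-1 Env mediated cell-cell fusion of effector and target cells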

T1 sequence (P11940 whole entry, the tested form may be a part): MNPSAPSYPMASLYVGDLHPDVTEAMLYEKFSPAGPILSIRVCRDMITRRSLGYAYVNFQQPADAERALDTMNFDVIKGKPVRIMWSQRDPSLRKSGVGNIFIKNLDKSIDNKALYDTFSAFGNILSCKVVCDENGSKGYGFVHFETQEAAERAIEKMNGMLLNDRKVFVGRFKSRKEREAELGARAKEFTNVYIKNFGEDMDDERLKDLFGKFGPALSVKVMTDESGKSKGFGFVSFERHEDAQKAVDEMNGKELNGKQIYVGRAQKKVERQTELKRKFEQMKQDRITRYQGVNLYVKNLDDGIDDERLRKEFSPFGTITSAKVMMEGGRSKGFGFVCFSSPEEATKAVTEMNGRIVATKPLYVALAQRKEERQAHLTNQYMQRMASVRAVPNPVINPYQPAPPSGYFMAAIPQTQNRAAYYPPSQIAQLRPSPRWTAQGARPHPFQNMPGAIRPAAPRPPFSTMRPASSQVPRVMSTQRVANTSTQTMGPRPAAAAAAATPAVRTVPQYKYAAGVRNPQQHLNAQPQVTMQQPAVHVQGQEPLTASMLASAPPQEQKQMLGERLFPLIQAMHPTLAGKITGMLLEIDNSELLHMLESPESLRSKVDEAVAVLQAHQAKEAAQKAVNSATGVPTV
Glucose-6-phosphate 1-dehydrogenase, sequence (P11413 whole entry): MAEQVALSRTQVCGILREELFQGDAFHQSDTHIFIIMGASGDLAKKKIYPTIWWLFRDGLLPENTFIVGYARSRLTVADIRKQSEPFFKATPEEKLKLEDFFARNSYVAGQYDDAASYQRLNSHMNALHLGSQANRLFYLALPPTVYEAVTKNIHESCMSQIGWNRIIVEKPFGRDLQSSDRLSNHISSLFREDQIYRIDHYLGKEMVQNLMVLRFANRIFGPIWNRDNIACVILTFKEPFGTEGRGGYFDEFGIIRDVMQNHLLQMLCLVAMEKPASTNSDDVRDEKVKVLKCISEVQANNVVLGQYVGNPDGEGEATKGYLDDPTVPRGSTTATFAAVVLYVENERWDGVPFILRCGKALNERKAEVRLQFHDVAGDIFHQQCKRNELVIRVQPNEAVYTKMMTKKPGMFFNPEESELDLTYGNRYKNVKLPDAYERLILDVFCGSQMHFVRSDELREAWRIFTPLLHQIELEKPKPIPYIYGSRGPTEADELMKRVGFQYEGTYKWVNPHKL
Induced myeloid leukemia cell differentiation protein Mcl-1, sequence (Q07820 whole entry): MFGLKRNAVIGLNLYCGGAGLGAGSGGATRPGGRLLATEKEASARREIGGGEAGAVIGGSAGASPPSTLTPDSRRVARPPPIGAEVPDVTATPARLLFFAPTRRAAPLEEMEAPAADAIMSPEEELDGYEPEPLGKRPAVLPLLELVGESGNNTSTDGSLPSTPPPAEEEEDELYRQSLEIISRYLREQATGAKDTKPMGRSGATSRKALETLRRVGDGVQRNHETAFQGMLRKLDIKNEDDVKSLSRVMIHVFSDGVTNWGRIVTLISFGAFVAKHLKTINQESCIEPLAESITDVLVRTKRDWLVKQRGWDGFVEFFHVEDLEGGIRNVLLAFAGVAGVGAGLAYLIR
Paired box protein Pax-8, sequence (Q06710 whole entry): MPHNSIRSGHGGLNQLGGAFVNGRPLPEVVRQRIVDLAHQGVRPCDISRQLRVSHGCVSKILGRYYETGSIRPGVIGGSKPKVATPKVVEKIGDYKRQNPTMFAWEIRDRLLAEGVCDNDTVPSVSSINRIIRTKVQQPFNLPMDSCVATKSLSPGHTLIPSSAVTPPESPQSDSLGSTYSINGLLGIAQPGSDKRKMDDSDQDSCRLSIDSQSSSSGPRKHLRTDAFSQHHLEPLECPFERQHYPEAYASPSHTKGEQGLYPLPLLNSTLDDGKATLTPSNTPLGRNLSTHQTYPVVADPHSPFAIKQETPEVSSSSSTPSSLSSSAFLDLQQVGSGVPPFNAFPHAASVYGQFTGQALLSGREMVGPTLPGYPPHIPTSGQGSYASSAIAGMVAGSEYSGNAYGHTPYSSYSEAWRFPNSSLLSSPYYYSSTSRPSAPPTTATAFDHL
Voltage-dependent T-type calcium channel subunit alpha-1H, sequence (O95180 whole entry, the tested form may be a part): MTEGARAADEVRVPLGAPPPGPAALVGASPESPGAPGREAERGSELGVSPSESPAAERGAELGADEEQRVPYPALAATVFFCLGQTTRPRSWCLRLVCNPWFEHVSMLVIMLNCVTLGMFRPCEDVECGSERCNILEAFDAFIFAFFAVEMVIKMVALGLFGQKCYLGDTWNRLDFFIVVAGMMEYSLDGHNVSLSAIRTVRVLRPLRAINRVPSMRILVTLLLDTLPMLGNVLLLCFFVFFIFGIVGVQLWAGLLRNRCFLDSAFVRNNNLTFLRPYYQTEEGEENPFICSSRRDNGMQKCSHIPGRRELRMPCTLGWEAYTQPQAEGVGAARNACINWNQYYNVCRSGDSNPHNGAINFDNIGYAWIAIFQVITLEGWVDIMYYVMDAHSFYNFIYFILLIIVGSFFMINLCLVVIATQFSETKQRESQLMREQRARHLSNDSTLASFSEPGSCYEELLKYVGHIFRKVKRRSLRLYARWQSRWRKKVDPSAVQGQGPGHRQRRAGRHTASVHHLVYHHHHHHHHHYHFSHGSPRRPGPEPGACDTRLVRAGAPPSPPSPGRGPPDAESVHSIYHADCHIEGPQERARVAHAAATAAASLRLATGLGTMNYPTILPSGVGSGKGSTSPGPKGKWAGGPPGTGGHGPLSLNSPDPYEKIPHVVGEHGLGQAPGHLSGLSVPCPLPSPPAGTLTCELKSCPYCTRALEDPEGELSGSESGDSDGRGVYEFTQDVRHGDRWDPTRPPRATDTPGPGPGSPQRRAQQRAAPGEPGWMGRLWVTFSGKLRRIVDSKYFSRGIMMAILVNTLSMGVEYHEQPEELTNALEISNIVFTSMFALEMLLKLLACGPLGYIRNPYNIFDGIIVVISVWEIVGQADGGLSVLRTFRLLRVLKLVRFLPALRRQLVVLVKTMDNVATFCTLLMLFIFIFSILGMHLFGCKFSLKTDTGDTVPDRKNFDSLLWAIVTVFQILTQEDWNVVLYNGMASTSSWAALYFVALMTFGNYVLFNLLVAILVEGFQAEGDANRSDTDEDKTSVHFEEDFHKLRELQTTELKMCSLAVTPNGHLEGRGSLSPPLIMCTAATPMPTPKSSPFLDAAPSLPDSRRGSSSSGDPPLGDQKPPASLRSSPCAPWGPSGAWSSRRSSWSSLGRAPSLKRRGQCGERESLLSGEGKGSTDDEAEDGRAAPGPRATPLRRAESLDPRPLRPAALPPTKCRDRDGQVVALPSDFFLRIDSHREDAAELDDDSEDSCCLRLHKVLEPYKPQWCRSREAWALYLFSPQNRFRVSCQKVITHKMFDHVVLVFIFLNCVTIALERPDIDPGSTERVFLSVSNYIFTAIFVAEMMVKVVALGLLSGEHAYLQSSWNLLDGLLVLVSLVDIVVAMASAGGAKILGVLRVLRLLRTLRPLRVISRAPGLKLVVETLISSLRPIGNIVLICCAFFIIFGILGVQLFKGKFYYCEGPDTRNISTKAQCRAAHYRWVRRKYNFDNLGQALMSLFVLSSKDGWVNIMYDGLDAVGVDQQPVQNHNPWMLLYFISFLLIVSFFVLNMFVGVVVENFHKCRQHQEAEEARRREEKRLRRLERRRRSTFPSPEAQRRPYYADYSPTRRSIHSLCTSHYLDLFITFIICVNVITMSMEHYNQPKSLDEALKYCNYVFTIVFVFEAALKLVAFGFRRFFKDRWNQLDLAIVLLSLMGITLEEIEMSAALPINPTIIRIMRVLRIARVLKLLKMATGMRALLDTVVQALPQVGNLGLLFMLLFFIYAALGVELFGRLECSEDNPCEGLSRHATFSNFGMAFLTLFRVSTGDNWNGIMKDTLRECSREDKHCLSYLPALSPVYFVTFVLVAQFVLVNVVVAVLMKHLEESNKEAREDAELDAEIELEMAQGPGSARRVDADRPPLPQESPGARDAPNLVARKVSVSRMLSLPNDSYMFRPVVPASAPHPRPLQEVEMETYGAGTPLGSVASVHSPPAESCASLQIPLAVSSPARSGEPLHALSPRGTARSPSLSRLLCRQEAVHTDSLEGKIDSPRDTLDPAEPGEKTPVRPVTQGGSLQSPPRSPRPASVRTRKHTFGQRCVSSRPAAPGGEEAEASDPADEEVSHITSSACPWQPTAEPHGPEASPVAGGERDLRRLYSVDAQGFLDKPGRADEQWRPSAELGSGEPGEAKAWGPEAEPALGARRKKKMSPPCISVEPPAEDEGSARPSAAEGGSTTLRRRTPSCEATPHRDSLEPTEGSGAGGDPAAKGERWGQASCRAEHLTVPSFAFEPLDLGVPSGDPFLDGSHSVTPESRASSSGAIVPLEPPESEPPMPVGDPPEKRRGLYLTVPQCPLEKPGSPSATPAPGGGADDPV
Nonstructural protein 1, sequence (Q194T2 whole entry): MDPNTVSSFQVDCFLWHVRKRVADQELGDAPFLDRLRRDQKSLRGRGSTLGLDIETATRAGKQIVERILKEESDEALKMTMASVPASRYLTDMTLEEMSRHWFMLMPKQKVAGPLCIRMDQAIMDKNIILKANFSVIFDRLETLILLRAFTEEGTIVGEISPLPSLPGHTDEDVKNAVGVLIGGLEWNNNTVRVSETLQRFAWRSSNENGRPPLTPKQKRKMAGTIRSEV
Eukaryotic translation initiation factor 4E, sequence (P63073 whole entry): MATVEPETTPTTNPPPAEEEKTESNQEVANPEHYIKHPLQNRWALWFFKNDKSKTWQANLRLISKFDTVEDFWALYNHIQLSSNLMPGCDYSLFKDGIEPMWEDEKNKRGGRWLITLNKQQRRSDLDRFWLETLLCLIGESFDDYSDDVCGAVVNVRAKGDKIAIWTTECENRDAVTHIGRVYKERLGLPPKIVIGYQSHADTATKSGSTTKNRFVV

CN(CCC(=O)c1ccccc1)CCC(=O)c1ccccc1
IC50 [1]: > 66 µM (inactive)
IC50 [2]: > 66 µM (inactive)

OC(c1ccccc1)(c1ccccc1)C1CCN(CCCOc2ccc(C(F)(F)F)cc2)CC1
AC50 [3]: 9.23 µM (active)
AC50 [4]: 16.6 µM (active)
AC50 [5]: 18.8 µM (active)
AC50 [6]: 10.7 µM (active)
AC50 [7]: 11.6 µM (active)

CCN(CC)CC[n+]1ccc2c(C)c3[nH]c4ccccc4c3c(C)c2c1
GI50 (SN12K1): 0.124 µM (active)
AC50 (Cytochrome P450 2D6): 3.16 µM (inconclusive)
GI50 (P388/ADR): 19.1 µM (inactive)

Cc1noc(C(=O)Nc2sc3c(c2C#N)CCC3)c1Cl
IC50 [8]: 47.5 µM (inactive)
EC50 (cells [9]): > 350 µM (not active)
EC50 (cells [10]): 57 µM (active)

Oc1nncc(N/N=C/C=C/c2ccccc2)n1
AC50 (HEK293 [11]): 7.38 µM (active)
IC50 [12]: > 47.1 µM (inactive)
EC50 [13]: > 53 µM (inactive)

Cc1ccc(S(=O)(=O)N(C)C[C@@H]2Oc3ncc(-c4cc5ccccc5o4)cc3C(=O)N([C@H](C)CO)C[C@@H]2C)cc1
AC50 [14]: 36.2 µM (active)
AC50 [15]: 17.3 µM (active)

CN(C)c1ccc(CC(=O)c2nc3ccccc3s2)cc1
IC50 [16]: 2.73 µM (active)

CCOC(=O)c1cc(Cl)ccc1OC(N)=O
GI50 (SN12K1): > 100 µM (inactive)

CCc1ccc(OS(=O)(=O)c2cn(C)c(=O)n(C)c2=O)cc1
IC50 [1]: > 66 µM (inactive)
IC50 [2]: > 66 µM (inactive)

COc1ccc(OCC(=O)Nc2nnc(-c3ccco3)s2)cc1
IC50 [16]: 2.82 µM (active)

Cc1ccc(S(=O)(=O)Nc2ccc3c(c2)C(=O)N([C@@H](C)CO)C[C@H](C)[C@@H](CN(C)Cc2ccc(Cl)c(Cl)c2)OCCCC[C@@H](C)O3)cc1
AC50 [17]: > 70 µM (inactive)
AC50 (Paired box protein Pax-8): 5.22 µM (active)

CC(=O)NC(c1ccco1)c1ccc2cccnc2c1O (stereo not given)
IC50 (HEK293 [18]): > 20 µM (inactive)
IC50 (HEK293 [19]): > 20 µM (inactive)
IC50 (Nonstructural protein 1): 12.5 µM (active)
IC50 (HEK293 [20]): > 20 µM (inactive)
EC50 (HEK293 [21]): > 20 µM (inactive)

COc1ccc(NC(=S)NC2CCS(=O)(=O)C2)cc1 (stereo not given)
IC50 [22]: > 64 µM (inactive)

Cn1nnnc1Sc1ncnc2scc(-c3ccc4c(c3)OCO4)c12
AC50 [3]: 14.4 µM (active)
CC50 (Vero): 24 µM (active)
AC50 [4]: 28.8 µM (active)
AC50 [5]: 0.695 µM (active)
AC50 [7]: 1.34 µM (active)
AC50 (Paired box protein Pax-8): 0.747 µM (active)

CS(=O)(=O)N(CC(=O)N1CCN(c2ccccc2)CC1)c1ccc(Cl)c(C(F)(F)F)c1
EC50 [23]: 5.13 µM (active)

COc1ccccc1CN(C)C(=O)CN1CCN(C(=O)c2cccs2)CC1
AC50 [24]: 32.8 µM (active)

CCSc1nc2cc(S(=O)(=O)N3CCOCC3)ccc2o1
IC50 [8]: > 80 µM (inactive)

— ChEMBL document CHEMBL1201862, “PubChem BioAssay data set” (2004)
